In data set [1] the test system is 20-kDa myosin light chain (LC20). The experiment in a line: Measurement of myosin light chain 20 phosphorylation (LC20-P) in permeabilized myometrial strips. On the set-up: species or system rat. Conditions: 51 mM KCl stimulated for 4 min myometrial strips. Here is the method:
Measurements of myosin light chain 20 phosphorylation (LC20-P). Tissue preparation was as described above. After equilibration and stretching, the myometrial strips were permeabilized with 20 μg/ml alpha-toxin (List Biological Lab, Campbell, Calif.) at 34° C. for 30 min. The intracellular Ca2+ concentration was clamped at pCa7.0 for 12 min to prevent an artifactual triggering of contractions in response to the freezing solution. The measurement of LC20-P was performed by glycerol urea gels and western blots as previously published (Je et al., J. Physiol. 537, 567-577 (2001)). Moles phosphate per mole myosin light chain was calculated by dividing the density of the phosphorylated band by the sum of densities of phosphorylated plus the unphosphorylated bands.

The next data set deals with myometrial strips. The experiment in a line: In vitro myometrial contractility (isometric force, AUC) of strips from treated rats.
The subject of data set [2] is high molecular weight caldesmon (h-CaD). The experiment in a line: Western blot of myometrial h-CaD phosphorylation (Ser789). Also on record: species or system rat. As to conditions: myometrium at onset of labor. The procedure: (§1) Western blot analysis. The muscle strips were quick-frozen in a dry ice acetone/DTT/TCA slurry at the end of force recording experiment. Samples were homogenized in a buffer containing 20 mM MOPS, 4% SDS, 1% Triton, 10% glycerol, 10 mM DTT, 20 mM β-glycerophosphate, 5.5 μM leupeptin, 5.5 μM pepstatin A, 20 KIU aprotinin, 2 mM Na3VO4, 1 mM NaF, 20 μM 4-(2-aminorthyl) benzenesulphonyl fluoride (AEBSF) and 100 μM ZnCl2. Protein-matched samples were SDS-PAGE electrophoresed, transferred to Immobilon-P membrane (Millipore, Bedford, Mass.), and subjected to immunostaining using the appropriate antibody. Blots were visualized with a SuperSignal West Pico Peroxide Solution (Pierce, Rockford, Ill.). The images were detected with a chemiluminescence screen and quantified with a BioRad Molecular Imager and Multi-Analyst software.
A general note: In western blotting, separated proteins are transferred to a membrane and probed.

Another data set relates to ERK2. As to the kind of experiment: Western blot of myometrial ERK2 phosphorylation (p-ERK2/ERK2). As to conditions: myometrium at onset of labor. Also on record: species or system rat. The procedure:
as §1

The test system of another data set is pregnant rats and pups. The experiment in a line: Fetal weight and toxicity to mothers and pups. It counts as in vivo, rat. Conditions: for Fetal number/rat / Fetal weight: gestation day 20; for Fetal weight: (n) in brackets. An excerpt:
Animals and treatment groups. All procedures were approved by our institutional animal care and use committee (IACUC). Sprague-Dawley nonpregnant and time-mated, primigravid pregnant rats (day 1=sperm positive, Taconic, Germantown, N.Y.) were used for the experiments. They were housed in a constant-temperature room with a 12-hr light and 12-hr dark cycle. Food and water were available ad libitum. The rats were divided into five groups: nonpregnant (NP), sham, RU486 treated (RU), U0126+RU486 treated (U0+RU) and spontaneous labor (SL). The sequential scheme of the experiment is illustrated in FIG. 1.
Induction of preterm labor: In the RU group, rats (n=6) were treated with RU486 subcutaneously (SC) at dose of 2 mg/kg (concentration of 3 mg/ml in sunflower seed oil) at 10 am on day 19 of pregnancy. Then the rats were closely observed for signs of labor on day 20 of pregnancy.
U0126 treatment: In the U0+RU group, 18-day pregnant rats (n=6) were treated with U0126 at dose of 100 mg/kg, SC, q8h (7 am, 3 pm and 11 pm). U0126 was dissolved at a concentration of 200 mg/ml in DMSO. On day 19 of pregnancy, the rats were administrated RU486 at 10 am for preterm labor induction. The U0126 treatment continued till the onset of labor.
Tissue preparation and force recording.

Data set [3] deals with Sprague-Dawley pregnant rats. As to the kind of experiment: RU486-induced preterm labor in rats, onset of labor. As to conditions: for average delivery time after RU486 administration: RU486 2 mg/kg SC at 10 am day 19 of pregnancy, U0126 100 mg/kg SC q8h from day 18 until labor, mean±SEM.

The values that follow come from patent publication US20050014676A1, “Methods for delaying or inducing labor” (Boston Biomedical Research Institute, priority 2003, published 2005).

“Also recorded” adds a separate entry of the source.

Regarding `[Cl-].[K+]` [KCI], in data set [1], the “LC20-P level, positive control” value is given as 39.68±3.33.

As for `N#CC(=C(N)Sc1ccccc1N)C(C#N)=C(N)Sc1ccccc1N` [U0126, 1,4-diamino-2,3-dicyano-1,4-bis (2-aminophenylthio) butadiene], the “myometrial AUC once labor commenced, vs RU486 or spontaneous labor” value in the data set with myometrial strips (U0+RU group) was “indistinguishable”. Also, in data set [2], the “h-CaD phosphorylation normalized to CaD protein, words” value is “indistinguishable”. Also, the “ERK2 phosphorylation (p-ERK2/ERK2), words” value in the data set with ERK2 is listed as “indistinguishable”. Moreover, the “signs of toxicity to mother or offspring” value in the data set on pregnant rats and pups (U0126 at doses sufficient to delay preterm labor) is recorded as “no apparent signs of toxicity; also recorded: no obvious signs of toxicity”. Besides, the “effect on fetal weight” value with pregnant rats and pups (U0126 treatment) is “did not affect fetal weight”. For the same molecule, the “daily weight gain or general behavior of pregnant rats, U0+RU vs RU group” value in the data set with pregnant rats and pups (data not shown) was “no difference”. In the data set on pregnant rats and pups, the Fetal number/rat was found to be 12.3 and the Fetal weight is listed as 2.46 ± 0.036 (31) grams. Further, in data set [3] (n=6), the “average delivery time after RU486 administration” value amounted to 25.18 ± 0.64 h. The “delay of RU486-induced preterm labor” value in data set [3] (U0126 pretreatment, rats) was “delays RU486-induced preterm labor in a statistically significant manner”.

With `CC#C[C@]1(O)CC[C@H]2[C@@H]3CCC4=CC(=O)CCC4=C3[C@@H](c3ccc(N(C)C)cc3)C[C@@]21C` [RU486, 11 β-[4-Dimethylamino] phenyl-17β-hydroxy-17-[1-propynyl] estra-4,9-dien-3-one], the “area under force curve (AUC) normalized to tissue dry weight” value with myometrial strips (strips from treated rats at labor, force integrated over 15 min) is 381.49 ± 44.92 g·s/mg. Besides, in the data set with pregnant rats and pups, the Fetal number/rat worked out at 13.4 and the Fetal weight was 2.46 ± 0.068 (16) grams. Besides, the “average delivery time after RU486 administration” value in data set [3] (n=6) was found to be 22.25 ± 0.24 h. In data set [3] (RU486-induced preterm labor, Mean±SD, n=6), the average gestational length turned out to be 20.35 ± 0.02 days.
